Laboratory results reported in ChEMBL document CHEMBL5252613, “Discovery and anti-tumor activity of 4-(benzylamino)-6-(3,5-dimethylisoxazol-4-yl)quinolin-2(1H)-one (CG13250), a potent, selective and orally bioavailable BET bromodomain inhibitor” (Bioorg Med Chem Lett, 2023).
Each block holds one compound with its values, some of them ahead of it. Activity calls are given as the source filed them. The calls are words filed in the database; no cut-off is given here.

What was measured:
MV4-11 = assay: Growth inhibition of human MV4-11 cells measured after 72 hrs; format: functional
[1] = target: T1, Bromodomain-containing protein 4 (Homo sapiens, UniProt O60885); assay: Inhibition of BRD4 bromodomain 1/2 (unknown origin) assessed as dissociation constant by DiscoveRx BROMOscan assay
[2] = Cmax in rat plasma at 50 mg/kg, po; format: ADME, organism-based; design: dose 50 mg/kg, route po
[3] = target: Tyrosine-protein kinase JAK1 (Homo sapiens) (UniProt P23458); assay: Inhibition of JAK1 JH2 (unknown origin) at 10 uM by DiscoverX KINOMEscan relative to control
Sequence of Tyrosine-protein kinase JAK1 (Homo sapiens) (P23458 whole entry): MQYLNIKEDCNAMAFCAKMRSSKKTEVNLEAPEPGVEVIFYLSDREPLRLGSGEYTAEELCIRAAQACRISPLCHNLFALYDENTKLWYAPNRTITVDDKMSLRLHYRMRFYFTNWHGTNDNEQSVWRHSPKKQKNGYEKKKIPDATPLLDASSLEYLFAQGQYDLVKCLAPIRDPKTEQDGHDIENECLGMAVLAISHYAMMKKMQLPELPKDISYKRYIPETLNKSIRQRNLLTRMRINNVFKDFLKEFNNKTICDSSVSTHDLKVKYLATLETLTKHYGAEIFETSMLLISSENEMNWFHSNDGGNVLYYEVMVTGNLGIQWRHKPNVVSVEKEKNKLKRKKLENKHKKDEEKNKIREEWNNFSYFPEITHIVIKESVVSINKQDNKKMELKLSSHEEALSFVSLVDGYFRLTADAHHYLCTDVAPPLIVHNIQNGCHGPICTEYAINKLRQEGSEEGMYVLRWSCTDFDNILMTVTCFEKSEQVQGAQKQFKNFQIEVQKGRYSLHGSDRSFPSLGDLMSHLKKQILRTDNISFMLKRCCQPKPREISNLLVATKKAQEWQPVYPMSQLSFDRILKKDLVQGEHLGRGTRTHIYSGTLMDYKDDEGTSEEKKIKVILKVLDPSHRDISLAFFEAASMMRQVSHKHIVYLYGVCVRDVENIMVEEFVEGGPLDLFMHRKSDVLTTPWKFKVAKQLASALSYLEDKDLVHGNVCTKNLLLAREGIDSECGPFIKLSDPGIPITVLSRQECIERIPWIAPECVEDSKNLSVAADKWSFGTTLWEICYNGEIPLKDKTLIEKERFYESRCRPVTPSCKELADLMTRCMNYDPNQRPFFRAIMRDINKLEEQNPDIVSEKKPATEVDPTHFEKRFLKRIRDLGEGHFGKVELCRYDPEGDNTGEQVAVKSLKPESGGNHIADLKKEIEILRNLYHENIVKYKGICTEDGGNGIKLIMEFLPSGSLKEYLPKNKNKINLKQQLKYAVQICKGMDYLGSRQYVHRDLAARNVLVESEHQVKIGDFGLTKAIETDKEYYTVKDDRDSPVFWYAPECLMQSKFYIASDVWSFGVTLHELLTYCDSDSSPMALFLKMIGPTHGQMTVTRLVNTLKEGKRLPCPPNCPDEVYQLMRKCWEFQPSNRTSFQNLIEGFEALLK

[4] = AUC(0 to t) in CD-1 mouse plasma at 10 mg/kg, sc; format: ADME, organism-based; design: dose 10 mg/kg, route sc
[5] = target: CREB-binding protein (Homo sapiens) (UniProt Q92793); assay: Inhibition of CREBBP (unknown origin) at 10 uM by DiscoverX BROMOscan assay
[6] = Cmax in CD-1 mouse plasma at 10 mg/kg, sc; format: ADME, organism-based; design: dose 10 mg/kg, route sc
[7] = Tmax in CD-1 mouse plasma at 10 mg/kg, sc; format: ADME, organism-based
[8] = Half-life in CD-1 mouse plasma at 10 mg/kg, sc; format: ADME, organism-based
[9] = target: Histone acetyltransferase p300 (Homo sapiens) (UniProt Q09472); assay: Inhibition of EP300 (unknown origin) at 10 uM by DiscoverX BROMOscan assay
[10] = Tmax in CD-1 mouse plasma at 50 mg/kg, po; format: ADME, organism-based
[11] = Stability in mouse liver microsomes assessed as half-life; format: ADME, Microsome
[12] = target: T2, Bromodomain-containing protein 9 (Homo sapiens) (UniProt Q9H8M2); assay: Inhibition of BRD9 (unknown origin) at 10 uM by DiscoverX BROMOscan assay
T2 sequence (whole entry): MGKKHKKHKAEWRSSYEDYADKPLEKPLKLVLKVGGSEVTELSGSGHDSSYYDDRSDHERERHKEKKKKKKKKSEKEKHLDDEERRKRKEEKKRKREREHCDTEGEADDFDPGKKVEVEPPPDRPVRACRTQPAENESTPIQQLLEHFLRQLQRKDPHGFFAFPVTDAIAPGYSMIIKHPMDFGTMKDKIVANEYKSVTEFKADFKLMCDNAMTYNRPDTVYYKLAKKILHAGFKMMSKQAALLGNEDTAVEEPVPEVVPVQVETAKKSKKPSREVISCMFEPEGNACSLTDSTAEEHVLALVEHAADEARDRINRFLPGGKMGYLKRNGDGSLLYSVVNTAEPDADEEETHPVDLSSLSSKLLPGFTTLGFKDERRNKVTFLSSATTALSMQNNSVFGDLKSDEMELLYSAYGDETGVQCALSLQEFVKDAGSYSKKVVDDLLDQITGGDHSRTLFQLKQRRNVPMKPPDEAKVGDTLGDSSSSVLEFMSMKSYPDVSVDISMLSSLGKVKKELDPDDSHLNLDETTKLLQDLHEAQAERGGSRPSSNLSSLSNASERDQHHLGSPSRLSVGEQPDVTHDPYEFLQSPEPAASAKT

Cytochrome P450 2C19 = Cytochrome P450 2C19 (Homo sapiens, UniProt P33261); assay: Inhibition of CYP2C19 (unknown origin) by fluorescence based assay; format: ADME
Sequence of Cytochrome P450 2C19 (P33261 whole entry): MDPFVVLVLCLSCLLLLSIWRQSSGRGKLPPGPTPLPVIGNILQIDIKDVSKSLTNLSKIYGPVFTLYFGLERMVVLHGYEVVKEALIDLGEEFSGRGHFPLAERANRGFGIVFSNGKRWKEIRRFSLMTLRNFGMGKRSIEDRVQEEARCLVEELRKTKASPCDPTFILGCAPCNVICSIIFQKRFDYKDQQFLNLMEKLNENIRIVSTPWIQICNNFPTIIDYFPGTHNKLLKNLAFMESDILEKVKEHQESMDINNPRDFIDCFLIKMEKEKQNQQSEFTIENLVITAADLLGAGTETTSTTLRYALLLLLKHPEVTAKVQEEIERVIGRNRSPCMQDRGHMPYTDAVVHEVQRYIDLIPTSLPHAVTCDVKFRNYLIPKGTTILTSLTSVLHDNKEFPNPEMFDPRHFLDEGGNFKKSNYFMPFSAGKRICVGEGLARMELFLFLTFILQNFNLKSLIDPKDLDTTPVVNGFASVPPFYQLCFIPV

Cytochrome P450 2C9 = Cytochrome P450 2C9 (Homo sapiens, UniProt P11712); assay: Inhibition of CYP2C9 (unknown origin) by fluorescence based assay; format: ADME
Sequence of Cytochrome P450 2C9 (P11712 whole entry): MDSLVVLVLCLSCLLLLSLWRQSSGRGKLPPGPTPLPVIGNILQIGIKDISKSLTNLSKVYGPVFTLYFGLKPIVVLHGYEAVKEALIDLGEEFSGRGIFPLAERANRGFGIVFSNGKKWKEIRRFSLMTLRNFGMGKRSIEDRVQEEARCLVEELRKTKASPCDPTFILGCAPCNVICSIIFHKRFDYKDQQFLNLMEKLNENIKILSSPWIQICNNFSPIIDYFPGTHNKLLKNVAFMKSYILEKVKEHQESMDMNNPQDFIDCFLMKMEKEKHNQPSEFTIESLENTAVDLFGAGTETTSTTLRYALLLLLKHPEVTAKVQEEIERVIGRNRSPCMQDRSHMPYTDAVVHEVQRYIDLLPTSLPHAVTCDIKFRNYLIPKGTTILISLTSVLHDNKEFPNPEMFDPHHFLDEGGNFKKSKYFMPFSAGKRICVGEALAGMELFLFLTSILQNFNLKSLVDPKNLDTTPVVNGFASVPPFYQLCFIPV

Cytochrome P450 3A4 = Cytochrome P450 3A4 (Homo sapiens, UniProt P08684); assay: Inhibition of CYP3A4 (unknown origin) by fluorescence based assay; format: ADME
Sequence of Cytochrome P450 3A4 (P08684 whole entry): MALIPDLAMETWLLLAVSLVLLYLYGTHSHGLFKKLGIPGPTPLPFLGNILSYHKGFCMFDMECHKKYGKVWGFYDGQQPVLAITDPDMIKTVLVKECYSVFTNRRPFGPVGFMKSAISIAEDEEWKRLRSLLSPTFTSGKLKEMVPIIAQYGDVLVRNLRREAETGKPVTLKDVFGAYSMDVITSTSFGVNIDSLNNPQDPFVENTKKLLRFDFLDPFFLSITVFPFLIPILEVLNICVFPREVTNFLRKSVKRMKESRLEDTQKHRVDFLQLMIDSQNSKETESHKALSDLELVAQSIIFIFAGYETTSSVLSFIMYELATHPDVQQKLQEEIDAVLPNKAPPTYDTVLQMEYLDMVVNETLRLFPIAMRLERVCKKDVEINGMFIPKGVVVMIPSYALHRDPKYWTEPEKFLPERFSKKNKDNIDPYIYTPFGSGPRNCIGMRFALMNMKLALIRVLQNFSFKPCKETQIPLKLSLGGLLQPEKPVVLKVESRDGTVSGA

Peregrin (Homo sapiens) = target: T3, Peregrin (Homo sapiens) (UniProt P55201); assay: Inhibition of BRPF1 (unknown origin) at 10 uM by DiscoverX BROMOscan assay
T3 sequence (whole entry): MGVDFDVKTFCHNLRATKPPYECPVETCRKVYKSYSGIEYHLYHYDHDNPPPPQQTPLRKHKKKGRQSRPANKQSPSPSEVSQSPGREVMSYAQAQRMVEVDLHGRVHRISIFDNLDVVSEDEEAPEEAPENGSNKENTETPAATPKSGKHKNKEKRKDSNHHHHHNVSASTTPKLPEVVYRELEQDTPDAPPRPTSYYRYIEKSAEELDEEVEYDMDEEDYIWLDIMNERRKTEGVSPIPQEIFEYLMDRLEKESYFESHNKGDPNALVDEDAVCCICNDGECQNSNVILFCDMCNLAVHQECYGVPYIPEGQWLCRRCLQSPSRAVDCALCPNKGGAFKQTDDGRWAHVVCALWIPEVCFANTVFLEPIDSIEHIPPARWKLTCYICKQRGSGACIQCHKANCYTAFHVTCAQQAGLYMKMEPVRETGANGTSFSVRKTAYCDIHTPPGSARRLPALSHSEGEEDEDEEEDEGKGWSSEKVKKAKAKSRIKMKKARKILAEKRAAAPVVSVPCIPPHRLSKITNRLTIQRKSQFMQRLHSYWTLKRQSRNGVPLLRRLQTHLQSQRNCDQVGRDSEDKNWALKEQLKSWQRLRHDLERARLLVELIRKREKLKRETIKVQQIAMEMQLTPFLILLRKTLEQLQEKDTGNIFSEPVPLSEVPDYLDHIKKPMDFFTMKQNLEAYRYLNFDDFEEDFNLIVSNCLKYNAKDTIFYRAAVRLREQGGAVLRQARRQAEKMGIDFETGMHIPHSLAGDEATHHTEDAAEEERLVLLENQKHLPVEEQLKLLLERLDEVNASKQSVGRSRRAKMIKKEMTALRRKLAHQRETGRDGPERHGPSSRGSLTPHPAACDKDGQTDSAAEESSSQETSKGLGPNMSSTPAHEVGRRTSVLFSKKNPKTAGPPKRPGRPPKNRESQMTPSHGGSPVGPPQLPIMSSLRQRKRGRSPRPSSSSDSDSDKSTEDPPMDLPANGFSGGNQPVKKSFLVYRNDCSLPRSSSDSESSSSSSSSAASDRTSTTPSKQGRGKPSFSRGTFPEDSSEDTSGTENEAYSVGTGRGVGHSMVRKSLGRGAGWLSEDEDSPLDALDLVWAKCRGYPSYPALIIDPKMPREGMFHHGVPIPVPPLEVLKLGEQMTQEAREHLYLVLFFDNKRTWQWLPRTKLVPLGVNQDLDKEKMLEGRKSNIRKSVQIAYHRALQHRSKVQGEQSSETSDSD

[13] = Half-life in CD-1 mouse brain at 50 mg/kg, po; format: ADME, organism-based
[14] = target: Non-receptor tyrosine-protein kinase TYK2 (Homo sapiens) (UniProt P29597); assay: Inhibition of TYK2 (unknown origin) at 10 uM by DiscoverX KINOMEscan relative to control
Sequence of Non-receptor tyrosine-protein kinase TYK2 (Homo sapiens) (P29597 whole entry): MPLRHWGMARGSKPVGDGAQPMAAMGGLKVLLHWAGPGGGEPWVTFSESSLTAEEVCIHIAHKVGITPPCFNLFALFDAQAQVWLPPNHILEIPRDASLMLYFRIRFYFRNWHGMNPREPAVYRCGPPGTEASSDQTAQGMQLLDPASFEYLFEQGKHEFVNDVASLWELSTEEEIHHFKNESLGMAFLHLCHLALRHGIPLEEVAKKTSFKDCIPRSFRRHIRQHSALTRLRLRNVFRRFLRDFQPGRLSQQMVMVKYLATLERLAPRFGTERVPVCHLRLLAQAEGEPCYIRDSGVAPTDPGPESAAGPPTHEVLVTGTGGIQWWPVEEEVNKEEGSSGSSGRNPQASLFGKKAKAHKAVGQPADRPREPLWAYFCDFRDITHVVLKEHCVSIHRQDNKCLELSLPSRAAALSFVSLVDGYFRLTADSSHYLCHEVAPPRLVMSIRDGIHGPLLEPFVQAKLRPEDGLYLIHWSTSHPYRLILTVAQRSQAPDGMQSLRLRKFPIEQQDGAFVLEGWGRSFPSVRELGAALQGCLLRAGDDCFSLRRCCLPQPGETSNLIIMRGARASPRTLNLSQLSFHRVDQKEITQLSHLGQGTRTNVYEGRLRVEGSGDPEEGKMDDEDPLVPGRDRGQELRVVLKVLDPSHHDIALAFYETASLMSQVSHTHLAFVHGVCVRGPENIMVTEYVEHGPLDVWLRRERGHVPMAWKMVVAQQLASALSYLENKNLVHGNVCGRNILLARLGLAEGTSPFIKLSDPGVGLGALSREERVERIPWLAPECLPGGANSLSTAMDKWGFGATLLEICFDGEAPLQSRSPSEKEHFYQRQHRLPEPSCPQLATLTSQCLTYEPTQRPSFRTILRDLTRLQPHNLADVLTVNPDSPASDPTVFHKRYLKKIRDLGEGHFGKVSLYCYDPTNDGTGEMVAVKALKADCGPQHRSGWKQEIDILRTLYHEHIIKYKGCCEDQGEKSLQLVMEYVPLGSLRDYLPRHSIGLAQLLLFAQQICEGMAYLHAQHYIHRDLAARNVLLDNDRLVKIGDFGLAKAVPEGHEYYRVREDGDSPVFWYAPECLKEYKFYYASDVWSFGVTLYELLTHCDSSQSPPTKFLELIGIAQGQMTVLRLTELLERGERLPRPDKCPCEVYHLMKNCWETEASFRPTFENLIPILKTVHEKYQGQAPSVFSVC

[15] = AUC(0 to t) in CD-1 mouse plasma at 50 mg/kg, po; format: ADME, organism-based; design: dose 50 mg/kg, route po
[16] = Stability in human liver microsomes assessed as half-life; format: ADME, Microsome
[17] = target: T1, Bromodomain-containing protein 4; assay: Inhibition of BRD4 bromodomain 1/2 (unknown origin) by Alphascreen assay
[18] = Cmax in CD-1 mouse brain at 50 mg/kg, po; format: ADME, organism-based; design: dose 50 mg/kg, route po
[19] = Tmax in CD-1 mouse brain at 50 mg/kg, po; format: ADME, organism-based
Cytochrome P450 1A2 = target: T4, Cytochrome P450 1A2 (Homo sapiens, UniProt P05177); assay: Inhibition of CYP1A2 (unknown origin) by fluorescence based assay; format: ADME
T4 sequence (P05177 whole entry): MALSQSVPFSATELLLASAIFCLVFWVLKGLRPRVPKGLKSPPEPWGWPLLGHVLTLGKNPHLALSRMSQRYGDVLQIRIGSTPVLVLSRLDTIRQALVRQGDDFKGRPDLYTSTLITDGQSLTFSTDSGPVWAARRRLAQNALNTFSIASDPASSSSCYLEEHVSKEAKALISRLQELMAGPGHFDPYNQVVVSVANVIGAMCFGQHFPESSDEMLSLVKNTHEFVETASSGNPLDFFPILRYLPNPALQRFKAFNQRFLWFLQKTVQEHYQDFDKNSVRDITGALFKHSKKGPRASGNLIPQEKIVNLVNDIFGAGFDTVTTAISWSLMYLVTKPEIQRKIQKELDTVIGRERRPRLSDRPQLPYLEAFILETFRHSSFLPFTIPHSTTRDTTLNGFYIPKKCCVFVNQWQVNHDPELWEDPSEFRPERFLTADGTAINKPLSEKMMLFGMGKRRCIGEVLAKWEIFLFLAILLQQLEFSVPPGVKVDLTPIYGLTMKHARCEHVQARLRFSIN

[20] = AUC(0 to t) in CD-1 mouse brain at 50 mg/kg, po; format: ADME, organism-based; design: dose 50 mg/kg, route po
[21] = Half-life in CD-1 mouse plasma at 50 mg/kg, po; format: ADME, organism-based
Cytochrome P450 2D6 = Cytochrome P450 2D6 (Homo sapiens, UniProt P10635); assay: Inhibition of CYP2D6 (unknown origin) by fluorescence based assay; format: ADME
Sequence of Cytochrome P450 2D6 (P10635 whole entry): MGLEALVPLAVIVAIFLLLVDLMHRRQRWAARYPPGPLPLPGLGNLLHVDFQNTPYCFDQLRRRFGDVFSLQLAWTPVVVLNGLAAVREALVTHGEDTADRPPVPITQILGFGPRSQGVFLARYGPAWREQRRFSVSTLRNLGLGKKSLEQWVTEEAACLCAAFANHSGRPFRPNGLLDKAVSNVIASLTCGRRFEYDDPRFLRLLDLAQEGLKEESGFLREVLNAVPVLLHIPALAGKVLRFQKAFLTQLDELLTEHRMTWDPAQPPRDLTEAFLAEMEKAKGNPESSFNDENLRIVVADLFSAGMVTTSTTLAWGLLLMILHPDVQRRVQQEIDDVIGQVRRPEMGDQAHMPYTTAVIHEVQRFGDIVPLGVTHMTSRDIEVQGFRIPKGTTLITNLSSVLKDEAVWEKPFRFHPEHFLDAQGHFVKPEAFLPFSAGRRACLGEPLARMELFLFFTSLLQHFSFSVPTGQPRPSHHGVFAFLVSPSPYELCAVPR

[22] = Half-life in rat plasma at 50 mg/kg, po; format: ADME, organism-based
[23] = Cmax in CD-1 mouse plasma at 50 mg/kg, po; format: ADME, organism-based; design: dose 50 mg/kg, route po
Kasumi 1 = assay: Antitumor activity against human Kasumi 1 cells xenografted in mouse assessed as tumor growth inhibition at 50 mg/kg, po administered once a day for 15 days starting from 25 days after transplantation relative to control; format: functional; conditions: Kasumi 1, 360 h, time 15 day, read-out: TGI
[24] = Toxicity in mouse xenografted with human Kasumi 1 cells assessed as effect on body weight at 50 mg/kg, po administered once a day for 15 days starting from 25 days after transplantation; format: organism-based; conditions: in vivo, 360 h, time 15 day
[25] = Toxicity in mouse xenografted with human Kasumi 1 cells assessed as signs of toxicity at 50 mg/kg, po administered once a day for 15 days starting from 25 days after transplantation; format: organism-based; conditions: in vivo, 360 h, time 15 day
[26] = AUC(0 to t) in rat plasma at 50 mg/kg, po; format: ADME, organism-based; design: dose 50 mg/kg, route po
[27] = Tmax in rat plasma at 50 mg/kg, po; format: ADME, organism-based

SMILES: Cc1noc(C)c1-c1ccc2[nH]c(=O)cc(N3CCCCC3)c2c1
GI50 (MV4-11): 833 nM | Kd [1]: 54 nM

SMILES: Cc1noc(C)c1-c1ccc2[nH]c(=O)cc(NCc3cc(Cl)cc(Cl)c3)c2c1
GI50 (MV4-11): 1400 nM | Kd [1]: 170 nM

SMILES: Cc1noc(C)c1-c1ccc2[nH]c(=O)cc(NCc3ccccc3Br)c2c1
GI50 (MV4-11): 3500 nM | Kd [1]: 210 nM

SMILES: Cc1noc(C)c1-c1ccc2[nH]c(=O)cc(NCc3ccccc3)c2c1
Cmax [2]: 9340 ng/mL | inhibition [3]: > 65% | AUC(0-t) [4]: 25100 ng·h/mL | inhibition [5]: Active | Cmax [6]: 7770 ng/mL | Tmax [7]: 1 h | half-life [8]: 2.33 h | inhibition [9]: Active | Tmax [10]: 2 h | half-life [11]: 0.412 h | GI50 (MV4-11): 595 nM | inhibition [12]: Active | IC50 (Cytochrome P450 2C19): > 30000 nM | IC50 (Cytochrome P450 2C9): 6770 nM | IC50 (Cytochrome P450 3A4): > 30000 nM | inhibition (Peregrin (Homo sapiens)): Active | half-life [13]: 1.39 h | inhibition [14]: > 65% | AUC(0-t) [15]: 178000 ng·h/mL | half-life [16]: 0.202 h | IC50 [17]: 1100 nM | Cmax [18]: 289 ng/mL | Tmax [19]: 0.5 h | IC50 (Cytochrome P450 1A2): > 30000 nM | AUC(0-t) [20]: 755 ng·h/mL | half-life [21]: 1.02 h | IC50 (Cytochrome P450 2D6): > 30000 nM | half-life [22]: 2 h | Kd [1]: 44 nM | Cmax [23]: 60900 ng/mL | inhibition in vivo at 50 mg/kg (Kasumi 1): 60% | Activity [24]: Non-Toxic | Activity [25]: Non-Toxic | AUC(0-t) [26]: 34600 ng·h/mL | Tmax [27]: 1.5 h

SMILES: COc1ccccc1CNc1cc(=O)[nH]c2ccc(-c3c(C)noc3C)cc12
GI50 (MV4-11): 1040 nM | Kd [1]: 35 nM

SMILES: Cc1noc(C)c1-c1ccc2[nH]c(=O)cc(NCCc3ccccc3)c2c1
GI50 (MV4-11): 5720 nM | Kd [1]: 490 nM

Further lines, results first:

GI50 (MV4-11): 1580 nM | Kd [1]: 95 nM
SMILES: COc1cccc(CNc2cc(=O)[nH]c3ccc(-c4c(C)noc4C)cc23)c1

Kd [1]: 570 nM
SMILES: Cc1noc(C)c1-c1ccc2[nH]c(=O)cc(N3CCOCC3)c2c1

GI50 (MV4-11): 220 nM | IC50 [17]: 3700 nM
SMILES: Cc1ccc(-c2nnc(Sc3c(-c4ccccc4)c4cc(Br)ccc4[nH]c3=O)n2N)cc1

GI50 (MV4-11): 731 nM | Kd [1]: 53 nM
SMILES: Cc1noc(C)c1-c1ccc2[nH]c(=O)cc(NCc3cccc(Br)c3)c2c1
